Data taken from publication PMC6538953, “Metal Ions Activate the Human Taste Receptor TAS2R7” (Chemical Senses, 2019).
Numbering of substitutions follows the chain as printed. “Also recorded” adds a separate entry of the source. Structures can show the parent of a compound that is named as a salt. Where two headings read alike, the source gives them in different places.

Legend:
[1] = target: T1, human TAS2R7 (Homo sapiens, UniProt Q9NYW3); assay: Calcium mobilization assay, HEK293 cells transfected with TAS2R7 and Gα16-gust44; type: cell-based; settings: for Activation of TAS2R7 by metal ions: 20 mM, Figure 1A,B; for Dose dependence of TAS2R7 response: Figure 2A,C; for Compounds triggering detectable responses in cells transfected with TAS2R7: at the concentrations reported previously (Meyerhof et al. 2010), Figure 4A
T1 construct: first 45 residues of rat somatostatin receptor 3 (signal peptide) (N); expressed in transfected cells; host or cells: HEK293 (PEAKrapid, ATCC CRL-2828)
T1 sequence (Q9NYW3 1-318): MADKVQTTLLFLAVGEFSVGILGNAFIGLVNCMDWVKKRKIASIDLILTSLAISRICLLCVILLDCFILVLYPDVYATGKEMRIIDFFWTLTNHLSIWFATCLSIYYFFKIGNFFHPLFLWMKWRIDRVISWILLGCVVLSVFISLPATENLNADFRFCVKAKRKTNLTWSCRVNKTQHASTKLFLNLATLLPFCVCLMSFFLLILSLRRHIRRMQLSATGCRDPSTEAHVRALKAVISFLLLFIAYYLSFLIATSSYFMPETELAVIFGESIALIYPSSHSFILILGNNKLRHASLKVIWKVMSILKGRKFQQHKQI
Description: (§1) The coding sequences of human TAS2Rs were amplified from human genomic DNA, then subcloned into pcDNA3.1(+) vector, with the herpes simplex virus glycoprotein D epitope (HSV) at the C-terminal and a signal peptide consisting of the first 45 amino acid residues of the rat somatostatin receptor 3 at the N-terminal, essentially as described previously ([Bufe et al. 2002]). Point mutations in human TAS2R7 (NCBI Reference Sequence: NP_076408.1) were constructed by site-directed mutagenesis. All the constructs were confirmed by Sanger sequencing.
All tested compounds were purchased from Sigma–Aldrich, with the exception of diphenidol hydrochloride (Reagent World) and L-praziquantel (manufactured by Shaoxing Pharmaceutical Co. Ltd.). All the metal ions were dissolved in the assay solution (130 mM NaCl, 5 mM KCl, 2 mM CaCl2, and 10 mM glucose; pH 7.4) unless specified otherwise, and the bitter compounds (diphenidol, quinine, and chlorphenamine) were dissolved first in dimethyl sulfoxide (DMSO) as stock solution and then diluted with the assay solution; the final DMSO concentration was below 0.5%, with the exception of cromolyn, which is dissolved in the assay solution directly. For our initial screening (Table 1), Hanks’ balanced salt solution (HBSS, ThermoFisher, catalog no. 14025134) supplemented with 10 mM hydroxyethyl piperazineethanesulfonic acid (HEPES) were used as the assay buffer.
(§2) Human embryonic kidney 293 (PEAKrapid, ATCC # CRL-2828) cells were cultured in Opti-MEM medium with 4% fetal bovine serum. One day before transfection, cells were seeded on a 96-well plate at a density of 25 000 per well. Cells were then transiently transfected with a TAS2R construct (0.1 µg/well) along with a G protein Gα16-gust44 (0.1 µg/well) construct by Lipofectamine 2000 (0.5 µl/well). For controls, only Gα16-gust44 was used (mock transfection). Twenty-four hours after transfection, cells were washed with HBSS including 10 mM HEPES and loaded with Fluo-4 in the dark for 1 h. After incubation, cells were washed 2 times with HBSS (including 10 mM HEPES), incubated in the dark for another 30 min, and then washed with assay solution once more before running the assay using a FlexStation III reader. Relative fluorescence units (excitation at 494 nm, emission at 516 nm, and auto cutoff at 515 nm) were read every 2 s for 2 min. Calcium mobilization traces were recorded.
(§3) Calcium mobilization traces were raw data obtained from single wells. Changes in fluorescence (ΔF) were calculated as the peak fluorescence minus baseline fluorescence ([Lei et al. 2015]). The calcium mobilization was quantified as the percentage of change (ΔF) relative to baseline (F). […] Calcium mobilization traces and bar graphs along with dose-dependent plots were all generated by GraphPad Prism 7. Analysis of variance with Dunnett’s multiple comparisons test was used for statistical analysis. *P < 0.05.
To determine whether a TAS2R responds to metal ions, we expressed all 25 human bitter receptors individually in HEK293 cells (PEAKrapid) by transient transfection of a TAS2R along with a coupling chimeric G protein, Gα16-gust44. All TAS2Rs were cloned from human genomic DNA. Activation of human TAS2Rs was monitored by the calcium mobilization assay ([Lei et al. 2015]). We tested these receptors individually for their responses toward metal ions: ZnSO4 (20 mM), CuSO4 (20 mM), and MgCl2 (20 mM) (Table 1, Figure 1A). […] To determine the breadth of tuning of TAS2R7 toward metal ions, we also tested MnCl2 (20 mM), Al2(SO4)3 ([…]), and CaCl2 (20 mM) (Figure 1B).

[2] = target: T2, human TAS2R14 (Homo sapiens, UniProt Q9NYV8); assay: Calcium mobilization assay, HEK293 cells transfected with TAS2R14 and Gα16-gust44; type: cell-based; settings: 0.5 mM; Figure 3B
T2 construct: first 45 residues of rat somatostatin receptor 3 (signal peptide) (N); expressed in transfected cells; host or cells: HEK293 (PEAKrapid, ATCC CRL-2828)
T2 sequence (Q9NYV8 1-317): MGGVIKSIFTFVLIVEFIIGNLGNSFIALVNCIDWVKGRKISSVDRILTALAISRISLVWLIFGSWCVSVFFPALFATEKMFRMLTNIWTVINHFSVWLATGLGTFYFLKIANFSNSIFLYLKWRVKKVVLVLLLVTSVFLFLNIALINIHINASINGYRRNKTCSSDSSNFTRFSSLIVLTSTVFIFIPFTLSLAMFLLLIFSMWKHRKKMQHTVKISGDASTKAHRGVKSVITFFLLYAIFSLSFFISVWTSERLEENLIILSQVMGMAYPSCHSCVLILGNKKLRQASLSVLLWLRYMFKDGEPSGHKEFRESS
Description: as §1, with “sequencing. […]” for “sequencing.”
(§4) Human embryonic kidney 293 (PEAKrapid, ATCC # CRL-2828) cells were cultured in Opti-MEM medium with 4% fetal bovine serum. […] After incubation, cells were washed 2 times with HBSS (including 10 mM HEPES), incubated in the dark for another 30 min, and then washed with assay solution once more before running the assay using a FlexStation III reader. Relative fluorescence units (excitation at 494 nm, emission at 516 nm, and auto cutoff at 515 nm) were read every 2 s for 2 min. Calcium mobilization traces were recorded.
(§5) Calcium mobilization traces were raw data obtained from single wells. Changes in fluorescence (ΔF) were calculated as the peak fluorescence minus baseline fluorescence ([Lei et al. 2015]). The calcium mobilization was quantified as the percentage of change (ΔF) relative to baseline (F). […]

[3] = target: T3, human TAS2R7 H94^3.37F mutant (Homo sapiens, UniProt Q9NYW3, H94F); assay: Calcium mobilization assay, TAS2R7 mutant H94F; type: cell-based; settings: 20 mM metal ions except 0.16 mM Al2(SO4)3; Figure 6B
T3 construct: signal peptide: first 45 amino acid residues of rat somatostatin receptor 3 (N); expressed in transfected cells; host or cells: HEK293 PEAKrapid (ATCC CRL-2828), transient, co-transfected with Gα16-gust44
T3 sequence (Q9NYW3 1-318 H94F): T1 sequence (Q9NYW3 1-318) with H94F
Description: as §1, §4, §5

[4] = target: T4, human TAS2R7 E264^7.32K mutant (Homo sapiens, UniProt Q9NYW3, E264K); assay: Calcium mobilization assay, TAS2R7 mutant E264K; type: cell-based; settings: 20 mM metal ions except 0.16 mM Al2(SO4)3; cromolyn 10 mM; Figure 6B
T4 construct: signal peptide: first 45 amino acid residues of rat somatostatin receptor 3 (N); expressed in transfected cells; host or cells: HEK293 PEAKrapid (ATCC CRL-2828), transient, co-transfected with Gα16-gust44
T4 sequence (Q9NYW3 1-318 E264K): T1 sequence (Q9NYW3 1-318) with E264K
Description: as §1, §2, §3
To assess the importance of these residues, we performed site-directed mutagenesis. We mutated the negatively charged residues E16^1.42, E264^7.32, and E271^7.39 to Q (glutamine), K (lysine), or L (leucine). The facing H94^3.37 was mutated to F (phenylalanine). HEK293 cells that expressed mutant receptors along with Gα16-gust44 were examined for their responses to metal ions (20 mM for all except 0.16 mM Al2(SO4)3) and cromolyn (10 mM, as a positive control) to assess receptor’s function. To determine the expression level of each receptor, we stained the wild-type or mutant receptor-transfected cells using an anti-HSV antibody since all the receptors are tagged with HSV at c-terminal. […]

[5] = target: T5, human TAS2R7 E264^7.32L mutant (Homo sapiens, UniProt Q9NYW3, E264L); assay: Calcium mobilization assay, TAS2R7 mutant E264L; type: cell-based; settings: 20 mM metal ions except 0.16 mM Al2(SO4)3; cromolyn 10 mM; Figure 6B
T5 construct: signal peptide: first 45 amino acid residues of rat somatostatin receptor 3 (N); expressed in transfected cells; host or cells: HEK293 PEAKrapid (ATCC CRL-2828), transient, co-transfected with Gα16-gust44
T5 sequence (Q9NYW3 1-318 E264L): T1 sequence (Q9NYW3 1-318) with E264L
Description: as §1, §2
as §3, with “0.05. […]” for “0.05.”

[6] = target: T1, human TAS2R7; parameters: method as in Meyerhof et al. 2010; settings: ref Meyerhof et al. 2010; cited from earlier work
[7] = assay solution containing calcium, Figures 3A, 4C, read-out: EC50, TAS2R7, in the presence of calcium
[8] = assay solution containing no calcium, Figures 3A, 4C, read-out: EC50, TAS2R7, in the absence of calcium
[9] = assay solution with 2 mM CaCl2, Figure 2, read-out: EC50, TAS2R7 concentration-response
[10] = Supplementary Figure S2, read-out: EC50, TAS2R7, comparison of anions

Dose dependence of TAS2R7 response [1]	EC50 [1, 7] [mM]	EC50 [1, 8] [mM]	EC50 [1, 9] [mM]	Structure (SMILES)	other results
dose-dependent responses	7.56	4.7	5.27 ± 0.5	[Ca+2].[Cl-].[Cl-] [CaCl2]	Activation of TAS2R7 by metal ions [1]: activated the receptor
dose-dependent responses	1.89	0.85	1.04 ± 0.36	O=S(=O)([O-])[O-].[Cu+2] [CuSO4]	
				[Cl-].[K+] [KCl, potassium chloride]	Activation of TAS2R7 by monovalent salt ([1]; any concentration tested, Figures 1C,D and 2A): did not activate the receptor; also recorded: not responsive
				O=C(C1CCCCC1)N1CC(=O)N2CCc3ccccc3[C@@H]2C1 [L-praziquantel]	Response amplitude of TAS2R14 in the absence versus presence of calcium [2]: reduced response amplitude
dose-dependent responses	7.84	5.78	6.07 ± 1.07	[Cl-].[Cl-].[Mg+2] [MgCl2]	Maximal response of TAS2R7 in the absence versus presence of calcium ([1]; assay solution without calcium compared with calcium): smaller
dose-dependent responses	2.24	7.19	6.59 ± 1.73	[Cl][Mn][Cl] [MnCl2]	Activation of TAS2R7 by metal ions [1]: activated the receptor; Response of H94F mutant receptor [3]: diminished responses; Response of E264K mutant receptor [4]: still responsive
				[Cl-].[Cl-].[Zn+2] [ZnCl2]	EC50 [1, 10]: 3.42 mM
dose-dependent responses	2.41	3.49		O=S(=O)([O-])[O-].[Zn+2] [ZnSO4]	EC50 [1, 10]: 3.21 mM; Response of E264K mutant receptor [4]: specific loss of responses; Response of E264L mutant receptor [5]: responded
				CN(C)CCC(c1ccc(Cl)cc1)c1ccccn1 (stereo not drawn) [chlorphenamine, reference compound]	Compounds triggering detectable responses in cells transfected with TAS2R7 [1]: none; TAS2R7 reported to respond to bitter compounds [6]: respond
				OC(CCCN1CCCCC1)(c1ccccc1)c1ccccc1 [diphenidol, diphenidol hydrochloride, reference compound]	Compounds triggering detectable responses in cells transfected with TAS2R7 [1]: none; TAS2R7 reported to respond to bitter compounds [6]: respond
				C=C[C@H]1C[N@@]2CC[C@H]1C[C@H]2[C@H](O)c1ccnc2ccc(OC)cc12 [quinine, reference compound]	Compounds triggering detectable responses in cells transfected with TAS2R7 [1]: none; TAS2R7 reported to respond to bitter compounds [6]: respond
